From patent US10584133B2, “Thienopyrimidinone compounds” (BioTheryX, Inc., priority 2018, dated 2020)

How the values were obtained:
GSPT1 = GSPT1 degradation assay (Western blot, MV-4-11 cells); type: cell-based; settings: 6-8 hours
Method: (§1) MV-4-11 cells were grown in RPMI 1640 media supplemented with 10% fetal bovine serum, streptomycin and penicillin.
(§2) Cells were cultured at approximately 10^6 cells per mL and incubated in DMSO or the indicated compounds for 6-8 hours. Whole cell extracts were prepared using RIPA buffer according to manufacturer's protocol (Pierce). Briefly, 3×10^6 cells were washed once in PBS, the cell pellets were resuspended in RIPA buffer and allowed to incubate for 15 minutes on ice. Cells debris was removed by centrifugation and the cleared whole cell lysates were transferred to new tubes for further analysis.
(§3) For Western blot analysis, whole cell protein extracts were separated on 4-12% SDS-polyacrylamide gels, transferred to nitrocellulose and probed with the indicated primary antibodies. Membranes were subsequently washed and probed with the appropriate IRDye secondary antibodies (LI-COR). The signal was detected using the Odyssey Imaging System (LI-COR).
(§4) The following antibodies were used in these studies: Anti-eRF3/GSPT1: Abcam, ab126090 (Cambridge, Mass.); Anti-Ikaros: Abcam, ab191394 (Cambridge, Mass.); Anti-CK1α: Abcam, ab108296 (Cambridge, Mass.); Anti-PDE6D: Santa Cruz Biotechnology, sc-166854 (Dallas, Tex.); β-actin (8H10D10) mouse monoclonal antibody: Cell Signaling Technology, #3700 (Danvers, Mass.); IRDye 680RD Goat anti-rabbit antibody: LI-COR, 926-68071 (Lincoln, Nebr.); IRDye 800CW Goat anti-mouse antibody: LI-COR, 926-32210 (Lincoln, Nebr.).

PDE6D = molecular target: T1, PDE6D (Homo sapiens, UniProt O43924+Q96SW2); experiment: PDE6 degradation assay (Western blot, MV-4-11 cells); type: cell-based; settings: 6-8 hours
T1 construct: Whole cell extracts were prepared using RIPA buffer; endogenous in cells; host or cells: MV-4-11
T1 sequence (O43924 whole entry): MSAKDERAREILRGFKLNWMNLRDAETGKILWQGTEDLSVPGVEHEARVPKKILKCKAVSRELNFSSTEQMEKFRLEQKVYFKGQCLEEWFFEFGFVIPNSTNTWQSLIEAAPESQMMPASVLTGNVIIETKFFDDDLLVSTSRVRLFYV
T1 sequence (Q96SW2 whole entry): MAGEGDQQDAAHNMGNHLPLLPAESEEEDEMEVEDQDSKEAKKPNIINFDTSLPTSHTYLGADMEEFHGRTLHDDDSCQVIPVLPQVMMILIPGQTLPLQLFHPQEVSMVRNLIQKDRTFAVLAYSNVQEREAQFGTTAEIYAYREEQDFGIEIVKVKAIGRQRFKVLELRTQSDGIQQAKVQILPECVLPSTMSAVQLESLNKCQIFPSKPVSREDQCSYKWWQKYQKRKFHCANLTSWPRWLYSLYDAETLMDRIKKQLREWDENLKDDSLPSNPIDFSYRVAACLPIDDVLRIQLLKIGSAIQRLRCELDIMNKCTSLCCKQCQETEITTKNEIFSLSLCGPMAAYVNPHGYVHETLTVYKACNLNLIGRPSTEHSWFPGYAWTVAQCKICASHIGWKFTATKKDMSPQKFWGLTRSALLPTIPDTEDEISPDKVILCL
T1 sequence (Q16531 whole entry partner): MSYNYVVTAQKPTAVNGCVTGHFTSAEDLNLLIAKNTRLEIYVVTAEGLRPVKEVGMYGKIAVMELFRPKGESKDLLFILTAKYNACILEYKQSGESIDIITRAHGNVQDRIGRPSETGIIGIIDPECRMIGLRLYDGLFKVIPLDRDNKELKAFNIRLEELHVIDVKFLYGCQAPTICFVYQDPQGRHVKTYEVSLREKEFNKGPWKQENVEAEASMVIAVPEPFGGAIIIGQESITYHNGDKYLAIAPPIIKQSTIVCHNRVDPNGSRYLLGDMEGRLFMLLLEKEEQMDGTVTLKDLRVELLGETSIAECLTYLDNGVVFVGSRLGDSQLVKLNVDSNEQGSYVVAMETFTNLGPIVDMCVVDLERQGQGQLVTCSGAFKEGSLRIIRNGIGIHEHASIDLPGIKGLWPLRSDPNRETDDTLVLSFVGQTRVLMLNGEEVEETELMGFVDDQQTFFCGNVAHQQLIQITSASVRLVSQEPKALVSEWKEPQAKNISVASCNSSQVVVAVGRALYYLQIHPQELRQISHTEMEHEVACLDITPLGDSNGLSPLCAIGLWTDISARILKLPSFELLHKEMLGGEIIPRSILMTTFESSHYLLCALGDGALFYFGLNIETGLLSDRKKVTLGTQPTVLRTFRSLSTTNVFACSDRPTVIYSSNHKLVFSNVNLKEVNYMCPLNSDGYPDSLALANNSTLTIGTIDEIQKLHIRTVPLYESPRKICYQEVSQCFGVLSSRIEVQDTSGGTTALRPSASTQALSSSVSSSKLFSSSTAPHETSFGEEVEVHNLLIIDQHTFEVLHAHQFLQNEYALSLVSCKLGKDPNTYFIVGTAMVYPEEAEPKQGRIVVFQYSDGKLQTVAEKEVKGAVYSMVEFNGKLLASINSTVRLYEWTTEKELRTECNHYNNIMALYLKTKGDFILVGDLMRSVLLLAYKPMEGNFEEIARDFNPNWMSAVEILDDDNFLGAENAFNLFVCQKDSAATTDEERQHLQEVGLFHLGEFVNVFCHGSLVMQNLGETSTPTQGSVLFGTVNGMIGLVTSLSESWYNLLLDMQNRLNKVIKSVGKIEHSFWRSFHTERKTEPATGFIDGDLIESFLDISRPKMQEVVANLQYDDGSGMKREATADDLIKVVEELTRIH
Method: as §1, §2, §3, §4

IKAROS = molecular target: T2, IKAROS (Homo sapiens, UniProt Q13422+Q96SW2); experiment: IKAROS degradation assay (Western blot, MV-4-11 cells); type: cell-based; settings: 6-8 hours
T2 construct: endogenous in cells; host or cells: MV-4-11
T2 sequence (Q13422 whole entry): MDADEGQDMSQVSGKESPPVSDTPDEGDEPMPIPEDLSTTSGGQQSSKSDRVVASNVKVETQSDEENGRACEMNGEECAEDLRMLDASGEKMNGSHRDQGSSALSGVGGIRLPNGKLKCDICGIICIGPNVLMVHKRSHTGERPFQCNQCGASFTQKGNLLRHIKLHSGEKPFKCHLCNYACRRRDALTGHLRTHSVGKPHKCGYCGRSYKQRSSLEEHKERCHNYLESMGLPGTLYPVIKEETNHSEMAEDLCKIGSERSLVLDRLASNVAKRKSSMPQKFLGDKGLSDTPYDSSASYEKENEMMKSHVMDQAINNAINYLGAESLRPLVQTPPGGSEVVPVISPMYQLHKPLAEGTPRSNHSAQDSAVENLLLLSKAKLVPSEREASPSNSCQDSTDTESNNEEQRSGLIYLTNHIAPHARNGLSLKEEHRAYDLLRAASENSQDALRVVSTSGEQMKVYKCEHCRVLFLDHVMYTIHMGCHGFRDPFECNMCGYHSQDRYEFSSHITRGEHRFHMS
T2 sequence (Q96SW2 whole entry): as the sequence (Q96SW2 whole entry) above
T2 sequence (Q16531 whole entry partner): as the sequence (Q16531 whole entry partner) above
Method: as §1, §2, §3, §4

MV-4-11 cells = experiment: MV-4-11 cell viability assay (CellTiter-Glo); type: cell-based; settings: 3 days
Method: MV-4-11 cells were cultured in RPMI 1640 media supplemented with 10% fetal bovine serum, streptomycin and penicillin, and were plated in white walled 96-well plates at 2500 cells/well. Cells were incubated in DMSO (control) or the indicated compounds for 3 days at 37° C. and 5% CO2. Following the incubation period, 100 μL of CellTiterGlow (CTG) reagent (CellTiter-Glo® Luminescent Cell Viability Assay, Promega (Madison, Wis.)) was added to each well. Following a 10 minutes incubation with shaking, luminescence was measured using the EnVision Multimode plate reader.

CK1α = molecular target: T3, CK1α (Homo sapiens, UniProt P48729+Q96SW2); experiment: CK1α degradation assay (Western blot, MV-4-11 cells); type: cell-based; settings: 6-8 hours
T3 construct: Whole cell extracts were prepared using RIPA buffer; endogenous in cells; host or cells: MV-4-11
T3 sequence (P48729 whole entry): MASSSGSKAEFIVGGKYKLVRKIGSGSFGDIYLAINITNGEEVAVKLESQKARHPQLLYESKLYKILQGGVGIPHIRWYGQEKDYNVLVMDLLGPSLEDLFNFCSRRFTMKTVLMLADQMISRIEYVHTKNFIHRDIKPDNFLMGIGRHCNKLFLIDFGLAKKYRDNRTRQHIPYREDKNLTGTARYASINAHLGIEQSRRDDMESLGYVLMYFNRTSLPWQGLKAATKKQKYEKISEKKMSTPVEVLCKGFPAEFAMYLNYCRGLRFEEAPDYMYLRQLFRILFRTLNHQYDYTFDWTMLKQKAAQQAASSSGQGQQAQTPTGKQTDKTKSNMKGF
T3 sequence (Q96SW2 whole entry): as the sequence (Q96SW2 whole entry) above
T3 sequence (Q16531 whole entry partner): as the sequence (Q16531 whole entry partner) above
Method: as §1, §2, §3, §4

Helios = molecular target: T4, Helios (Homo sapiens, UniProt Q96SW2+Q9UKS7); experiment: Helios assay (Western blot degradation, MV-4-11 cells); type: cell-based; settings: 6-8 hours
T4 construct: Whole cell extracts were prepared using RIPA buffer; endogenous in cells; host or cells: MV-4-11
T4 sequence (Q9UKS7 whole entry): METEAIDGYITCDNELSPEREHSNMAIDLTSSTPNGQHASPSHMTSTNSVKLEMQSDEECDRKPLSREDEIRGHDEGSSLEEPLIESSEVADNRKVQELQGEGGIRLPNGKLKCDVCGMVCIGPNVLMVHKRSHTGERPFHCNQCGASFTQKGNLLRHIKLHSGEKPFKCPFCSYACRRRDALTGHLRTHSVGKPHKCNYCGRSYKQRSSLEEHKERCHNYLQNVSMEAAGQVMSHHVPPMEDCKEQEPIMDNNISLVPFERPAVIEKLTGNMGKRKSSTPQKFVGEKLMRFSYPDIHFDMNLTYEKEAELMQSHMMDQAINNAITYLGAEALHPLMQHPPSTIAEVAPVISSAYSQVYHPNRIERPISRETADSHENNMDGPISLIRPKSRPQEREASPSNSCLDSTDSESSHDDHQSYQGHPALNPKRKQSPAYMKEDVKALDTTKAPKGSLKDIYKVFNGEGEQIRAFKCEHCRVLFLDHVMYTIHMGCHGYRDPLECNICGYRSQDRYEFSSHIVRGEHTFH
T4 sequence (Q96SW2 whole entry): as the sequence (Q96SW2 whole entry) above
T4 sequence (Q16531 whole entry partner): as the sequence (Q16531 whole entry partner) above
Method: as §1, §2, §3, §4

TNFα = TNFα in LPS-induced PBMCs / CD14+ monocytes (Meso Scale); type: cell-based; settings: LPS 100 ng/mL, 18-24 h
Method: (§5) Either frozen primary blood mononuclear cells (PBMCs) or frozen CD14+ mobilized peripheral blood monocytes were purchased from AllCells (PB003F, Normal Peripheral Blood MNC (Alameda, Calif.)). Cells were quick thawed, washed 1-time with RPMI-1640 (10% FBS/1% Pen-Strep) and plated in 96 well plates at 200,000 cells per well. Cells were pretreated with DMSO only or Compound 12 for 1 h and then induced with 100 ng/mL lipopolysaccharide (LPS) for 18-24 h. The supernatant was analyzed for IL-1β, IL-6, and TNFα, using Meso Scale assay according to manufacturer's protocol. The negative control wells were treated with DMSO.

IL-6 = IL-6 in LPS-induced PBMCs / CD14+ monocytes (Meso Scale); type: cell-based; settings: LPS 100 ng/mL, 18-24 h
Method: as §5

IL-2 = IL-2 in anti-CD3 stimulated PBMCs (Mesoscale); type: cell-based, human; settings: fold difference from DMSO control, 24 h
Method: For the IL-2 analysis, 96 well plates were precoated with 1 μg/mL anti-human CD3 antibody (OKT3, eBioscience Inc., San Diego, Calif.). After washing with PBS, Compound 12 was added (50 μL/well) followed by PBMCs diluted at 3-4 million cells/mL (150 μL/well). Plates were incubated for 24 h and the supernatants collected for Mesoscale IL-2 analysis. IL-2 activity is measured as fold difference from the DMSO control.

IL-1β = IL-1β in LPS-induced PBMCs / CD14+ monocytes (Meso Scale); type: cell-based; settings: LPS 100 ng/mL, 18-24 h
Method: as §5

| SMILES | PDE6D % Degradation at 15 μM (PDE6D) [%] | PDE6D % Degradation at 30 μM (PDE6D) [%] | IKAROS % Degradation at 15 μM (IKAROS) [%] | IKAROS % Degradation at 30 μM (IKAROS) [%] | MV-4-11 Cell Viability % DMSO at 15 μM (MV-4-11 cells) [% DMSO] | MV-4-11 Cell Viability % DMSO at 30 μM (MV-4-11 cells) [% DMSO] | CK1α % Degradation at 15 μM (CK1α) [%] | CK1α % Degradation at 30 μM (CK1α) [%] | further results |
| --- | --- | --- | --- | --- | --- | --- | --- | --- | --- |
| Cc1nc2ccsc2c(=O)n1C1CCC(=O)NC1=O (stereo not drawn) [Compound 1, 3-(2-methyl-4-oxothieno[3,2-d]pyrimidin-3(4H)-yl)piperidine-2,6-dione] |  |  |  |  |  |  |  |  | GSPT1 % Degradation at 15 μM (GSPT1): 23%; GSPT1 % Degradation at 30 μM (GSPT1): 0% |
| Cc1nc2cscc2c(=O)n1C1CCC(=O)NC1=O (stereo not drawn) [Compound 2, 3-(2-methyl-4-oxothieno[3,4-d]pyrimidin-3(4H)-yl)piperidine-2,6-dione] | 0 | 24 | 0 | 7 |  |  |  |  |  |
| Cc1nc2sccc2c(=O)n1C1CCC(=O)NC1=O (stereo not drawn) [Compound 3, 3-(2-methyl-4-oxothieno[2,3-d]pyrimidin-3(4H)-yl)piperidine-2,6-dione] | 0 | 10 |  |  | 97 | 94 |  |  |  |
| Cc1nc2cc(Br)sc2c(=O)n1C1CCC(=O)NC1=O (stereo not drawn) [Compound 4, 3-(6-bromo-2-methyl-4-oxothieno[3,2-d]pyrimidin-3(4H)-yl)piperidine-2,6-dione] | 49 | 75 |  |  | 100 | 97 |  |  |  |
| Cc1nc2scc(Br)c2c(=O)n1C1CCC(=O)NC1=O (stereo not drawn) [Compound 5, 3-(5-bromo-2-methyl-4-oxothieno[2,3-d]pyrimidin-3(4H)-yl)piperidine-2,6-dione] | 0 | 15 |  |  |  |  |  |  |  |
| Cc1cc2c(=O)n(C3CCC(=O)NC3=O)c(C)nc2s1 (stereo not drawn) [Compound 6, 3-(2,6-dimethyl-4-oxothieno[2,3-d]pyrimidin-3(4H)-yl)piperidine-2,6-dione] |  |  |  |  | 89 | 91 |  |  |  |
| Cc1sc2nc(C)n(C3CCC(=O)NC3=O)c(=O)c2c1N (stereo not drawn) [Compound 7, 3-(5-amino-2,6-dimethyl-4-oxothieno[2,3-d]pyrimidin-3(4H)-yl)piperidine-2,6-dione] |  |  |  |  | 97 | 96 |  |  |  |
| Cc1nc2sc(Br)cc2c(=O)n1C1CCC(=O)NC1=O (stereo not drawn) [Compound 8, 3-(6-bromo-2-methyl-4-oxothieno[2,3-d]pyrimidin-3(4H)-yl)piperidine-2,6-dione] |  |  |  |  |  |  | 8 | 0 |  |
| Cc1nc2c(N)csc2c(=O)n1C1CCC(=O)NC1=O (stereo not drawn) [Compound 9, 3-(7-amino-2-methyl-4-oxothieno[3,2-d]pyrimidin-3(4H)-yl)piperidine-2,6-dione] |  |  |  |  |  |  | 24 | 12 |  |
| Cc1nc2scc(N)c2c(=O)n1C1CCC(=O)NC1=O (stereo not drawn) [Compound 10, 3-(5-amino-2-methyl-4-oxothieno[2,3-d]pyrimidin-3(4H)-yl)piperidine-2,6-dione] |  |  | 49 | 53 |  |  |  |  | Helios % Degradation at 15 μM (Helios): 0%; Helios % Degradation at 30 μM (Helios): 16% |
| Cc1nc2c(CN)scc2c(=O)n1C1CCC(=O)NC1=O.O=C(O)C(F)(F)F (stereo not drawn) [Compound 11, 3-(7-(aminomethyl)-2-methyl-4-oxothieno[3,4-d]pyrimidin-3(4H)-yl)piperidine-2,6-dione 2,2,2-trifluoroacetate] | 30 | 41 |  |  | 94 | 78 | 17 | 0 |  |
| Cc1ccc(NC(=O)NCc2scc3c(=O)n(C4CCC(=O)NC4=O)c(C)nc23)cc1Cl (stereo not drawn) [Compound 12, 1-(3-chloro-4-methylphenyl)-3-((3-(2,6-dioxopiperidin-3-yl)-2-methyl-4-oxo-3,4-dihydrothieno[3,4-d]pyrimidin-7-yl)methyl)urea] | 0 | 21 | 28 | 60 | 0 | 0 | 16 | 45 | GSPT1 % Degradation at 15 μM (GSPT1): 96%; GSPT1 % Degradation at 30 μM (GSPT1): 97%; inhibition at 1 µM (TNFα; 1 μM): 79%; inhibition at 10 µM (TNFα; 10 μM): 91%; inhibition at 1 µM (IL-6; 1 μM): 17%; inhibition at 10 µM (IL-6; 10 μM): 53%; IL-2 Fold Change (IL-2; 1 μM): 3.6 Fold Change; IL-2 Fold Change (IL-2; 10 μM): 3.1 Fold Change; inhibition at 1 µM (IL-1β; 1 μM): 80%; inhibition at 10 µM (IL-1β; 10 μM): 92%; Helios % Degradation at 15 μM (Helios): 49%; Helios % Degradation at 30 μM (Helios): 69% |
| Cc1ccc(NC(=O)NCc2cc3nc(C)n(C4CCC(=O)NC4=O)c(=O)c3s2)cc1Cl (stereo not drawn) [Compound 13, 1-(3-chloro-4-methylphenyl)-3-((3-(2,6-dioxopiperidin-3-yl)-2-methyl-4-oxo-3,4-dihydrothieno[3,2-d]pyrimidin-6-yl)methyl)urea] | 4 | 9 | 65 | 55 | 2 | 0.73 | 31 | 35 | GSPT1 % Degradation at 15 μM (GSPT1): 87%; GSPT1 % Degradation at 30 μM (GSPT1): 87%; Helios % Degradation at 15 μM (Helios): 50%; Helios % Degradation at 30 μM (Helios): 21% |
